# Results taken from patent publication US20060079566A1, “PDK-1/Akt signaling inhibitors” (priority 2003, published 2006).
# Experiments:
# recombinant PDK-1 = biological target: T1, recombinant PDK-1 (Homo sapiens, UniProt O15530); test: PDK-1 kinase activity (Upstate kit, SGK-coupled, cell-free); type: biochemical
# T1 construct: purchased Upstate (Lake Placid, N.Y.)
# T1 sequence (O15530 1-556): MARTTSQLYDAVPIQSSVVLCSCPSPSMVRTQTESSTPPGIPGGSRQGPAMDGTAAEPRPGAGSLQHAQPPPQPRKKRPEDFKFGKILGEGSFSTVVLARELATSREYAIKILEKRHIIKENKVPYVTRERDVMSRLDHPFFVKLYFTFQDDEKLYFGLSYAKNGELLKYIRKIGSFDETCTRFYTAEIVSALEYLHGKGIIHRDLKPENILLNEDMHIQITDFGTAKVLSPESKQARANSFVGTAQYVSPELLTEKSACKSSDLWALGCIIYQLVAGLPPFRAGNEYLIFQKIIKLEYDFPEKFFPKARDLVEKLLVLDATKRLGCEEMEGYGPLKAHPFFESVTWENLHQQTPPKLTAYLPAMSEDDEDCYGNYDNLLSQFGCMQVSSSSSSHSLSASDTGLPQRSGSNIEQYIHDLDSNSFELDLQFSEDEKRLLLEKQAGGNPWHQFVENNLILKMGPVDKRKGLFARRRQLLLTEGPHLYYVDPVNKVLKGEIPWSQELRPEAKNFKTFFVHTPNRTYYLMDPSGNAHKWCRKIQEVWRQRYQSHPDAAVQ
# Description: PDK-1 kinase activity This in vitro assay was performed using a PDK-1 kinase assay kit (Upstate, Lake Placid, N.Y.) according to the vendor's instructions. This cell-free assay is based on the ability of recombinant PDK-1, in the presence of DMSO vehicle or the test agent, to activate its downstream kinase serum- and glucocorticoid-regulated kinase (SGK.) which, in turn, phosphorylates the Akt/SGK-specific peptide substrate RPRAATF with [γ-^32]-ATP. […] The reported values represent the means of two independent determinations.
# CCRF-CEM = test: NCI DTP screen (SRB), Leukemia; type: cell-based; settings: Homo sapiens
# Description: (§5) After 24 h, two plates of each cell line are fixed in situ with TCA, to represent a measurement of the cell population for each cell line at the time of drug addition (Tz). Experimental drugs are solubilized in dimethyl sulfoxide at 400-fold the desired final maximum test concentration and stored frozen prior to use. […]
# (§6) Following drug addition, the plates are incubated for an additional 48 h at 37° C., 5% CO2, 95% air, and 100% relative humidity. […] Bound stain is subsequently solubilized with 10 mM trizma base, and the absorbance is read on an automated plate reader at a wavelength of 515 nm. […] Using the seven absorbance measurements [time zero, (Tz), control growth, (C), and test growth in the presence of drug at the five concentration levels (Ti)], the percentage growth is calculated at each of the drug concentrations levels. Percentage growth inhibition is calculated as: [(Ti−Tz)/(C−Tz)]×100 for concentrations for which Ti>/=Tz [(Ti−Tz)/Tz]×100 for concentrations for which Ti<Tz […]
# NCI-H522 = test: NCI DTP screen (SRB), Non-Small Cell Lung Cancer; type: cell-based, human
# Description: Screening of compounds 70 and 71 against several cancer cell lines The human tumor cell lines of the cancer screening panel are grown in RPMI 1640 medium containing 5% fetal bovine serum and 2 mM L-glutamine. For a typical screening experiment, cells are inoculated into 96 well microtiter plates in 100 μL at plating densities ranging from 5,000 to 40,000 cells/well depending on the doubling time of individual cell lines. After cell inoculation, the microtiter plates are incubated at 37° C., 5% CO2, 95% air and 100% relative humidity for 24 h prior to addition of experimental drugs. […]
# Following drug addition, the plates are incubated for an additional 48 h at 37° C., 5% CO2, 95% air, and 100% relative humidity. […] Bound stain is subsequently solubilized with 10 mM trizma base, and the absorbance is read on an automated plate reader at a wavelength of 515 nm. […] Using the seven absorbance measurements [time zero, (Tz), control growth, (C), and test growth in the presence of drug at the five concentration levels (Ti)], the percentage growth is calculated at each of the drug concentrations levels. Percentage growth inhibition is calculated as: [(Ti−Tz)/(C−Tz)]×100 for concentrations for which Ti>/=Tz [(Ti−Tz)/Tz]×100 for concentrations for which Ti<Tz
# Three dose response parameters are calculated for each experimental agent. […]
# COLO 205 = test: NCI DTP screen (SRB), Colon Cancer; type: cell-based; settings: Homo sapiens
# Description: (§1) Screening of compounds 70 and 71 against several cancer cell lines The human tumor cell lines of the cancer screening panel are grown in RPMI 1640 medium containing 5% fetal bovine serum and 2 mM L-glutamine. For a typical screening experiment, cells are inoculated into 96 well microtiter plates in 100 μL at plating densities ranging from 5,000 to 40,000 cells/well depending on the doubling time of individual cell lines. After cell inoculation, the microtiter plates are incubated at 37° C., 5% CO2, 95% air and 100% relative humidity for 24 h prior to addition of experimental drugs.
# (§2) After 24 h, two plates of each cell line are fixed in situ with TCA, to represent a measurement of the cell population for each cell line at the time of drug addition (Tz). Experimental drugs are solubilized in dimethyl sulfoxide at 400-fold the desired final maximum test concentration and stored frozen prior to use. At the time of drug addition, an aliquot of frozen concentrate is thawed and diluted to twice the desired final maximum test concentration with complete medium containing 50 μg/ml gentamicin. Additional four, 10-fold or ½ log serial dilutions are made to provide a total of five drug concentrations plus control. Aliquots of 100 μl of these different drug dilutions are added to the appropriate microtiter wells already containing 100 μl of medium, resulting in the required final drug concentrations.
# (§3) Following drug addition, the plates are incubated for an additional 48 h at 37° C., 5% CO2, 95% air, and 100% relative humidity. For adherent cells, the assay is terminated by the addition of cold TCA. Cells are fixed in situ by the gentle addition of 50 μl of cold 50% (w/v) TCA (final concentration, 10% TCA) and incubated for 60 minutes at 4° C. The supernatant is discarded, and the plates are washed five times with tap water and air dried. Sulforhodamine B (SRB) solution (100 μl) at 0.4% (w/v) in 1% acetic acid is added to each well, and plates are incubated for 10 minutes at room temperature. After staining, unbound dye is removed by washing five times with 1% acetic acid and the plates are air dried. Bound stain is subsequently solubilized with 10 mM trizma base, and the absorbance is read on an automated plate reader at a wavelength of 515 nm. For suspension cells, the methodology is the same except that the assay is terminated by fixing settled cells at the bottom of the wells by gently adding 50 μl of 80% TCA (final concentration, 16% TCA). Using the seven absorbance measurements [time zero, (Tz), control growth, (C), and test growth in the presence of drug at the five concentration levels (Ti)], the percentage growth is calculated at each of the drug concentrations levels. Percentage growth inhibition is calculated as: [(Ti−Tz)/(C−Tz)]×100 for concentrations for which Ti>/=Tz [(Ti−Tz)/Tz]×100 for concentrations for which Ti<Tz
# (§4) Three dose response parameters are calculated for each experimental agent. […] The drug concentration resulting in total growth inhibition (TGI) is calculated from Ti=Tz. […] Values are calculated for each of these three parameters if the level of activity is reached; however, if the effect is not reached or is exceeded, the value for that parameter is expressed as greater or less than the maximum or minimum concentration tested.
# HCT-116 = test: NCI DTP screen (SRB), Colon Cancer; type: cell-based; settings: Homo sapiens
# Description: as §1, §2, §3, §4
# KM12 = test: NCI DTP screen (SRB), Colon Cancer; type: cell-based; settings: Homo sapiens
# Description: as §1, §2, §3, §4
# SW-620 = test: NCI DTP screen (SRB), Colon Cancer; type: cell-based; settings: Homo sapiens
# Description: as §1, §2, §3, §4
# HCT-15 = test: NCI DTP screen (SRB), Colon Cancer; type: cell-based; settings: Homo sapiens
# Description: as §5, §6
# IGROV1 = test: NCI DTP screen (SRB), Ovarian Cancer; type: cell-based; settings: Homo sapiens
# Description: as §1, §2, §3, §4
# OVCAR-3 = test: NCI DTP screen (SRB), Ovarian Cancer; type: cell-based
# Description: as §1, §2, §3, §4
# OVCAR-4 = test: NCI DTP screen (SRB), Ovarian Cancer; type: cell-based; settings: Homo sapiens
# Description: as §1, §2, §3, §4
# OVCAR-5 = test: NCI DTP screen (SRB), Ovarian Cancer; type: cell-based; settings: Homo sapiens
# Description: as §1, §2, §3, §4
# OVCAR-8 = test: NCI DTP screen (SRB), Ovarian Cancer; type: cell-based; settings: Homo sapiens
# Description: as §1, §2, §3, §4
# SK-OV-3 = test: NCI DTP screen (SRB), Ovarian Cancer; type: cell-based; settings: Homo sapiens
# Description: as §1, §2, §3, §4
# A498 = test: NCI DTP screen (SRB), Renal Cancer; type: cell-based; settings: Homo sapiens
# Description: as §1, §2, §3, §4
# [1] = Preliminary animal studies, daily oral administration; settings: data not shown
smiles,measurement,setting,value
"NCC(=O)Nc1ccc(-n2nc(C(F)(F)F)cc2-c2ccc3c(ccc4ccccc43)c2)cc1 [Compound 70, 2-Amino-N-{4-[5-(2-phenanthrenyl)-3-(trifluoromethyl)-1H-pyrazol-1-yl]-phenyl}-acetamide]",IC50,"recombinant PDK-1; inhibiting recombinant PDK-1 kinase activity, read-out: IC50 PDK-1",5000 nM
same,increase in PDK-1 inhibition potency over compound 59,recombinant PDK-1; ratio of IC50 values,two-
same,GI50,CCRF-CEM,387 nM
same,CC50,CCRF-CEM; read-out: LC50,> 100000 nM
same,GI50,NCI-H522; Homo sapiens,1950 nM
same,Mean Optical Densities,NCI-H522; Log10 Concentration −4.0,0.486
same,GI50,COLO 205,1190 nM
same,GI50,HCT-116; HCT-116,1270 nM
same,CC50,"HCT-116; HCT-116, read-out: LC50",> 100000 nM
same,GI50,KM12; KM12,1070 nM
same,CC50,"KM12; KM12, read-out: LC50",6620 nM
same,GI50,SW-620; SW-620,1120 nM
same,CC50,"SW-620; SW-620, read-out: LC50",> 100000 nM
same,GI50,HCT-15; HCT-15,365 nM
same,CC50,"HCT-15; HCT-15, read-out: LC50",> 100000 nM
same,CC50,"IGROV1; IGROV-1, read-out: LC50",> 100000 nM
same,GI50,"IGROV1; IGROV-1, IGROV1",1560 nM
same,GI50,OVCAR-3; Homo sapiens,1510 nM
same,Mean Optical Densities,OVCAR-3; Log10 Concentration −8.0,1.879
same,GI50,OVCAR-4; OVCAR-4,1780 nM
same,CC50,"OVCAR-4; OVCAR-4, read-out: LC50",6550 nM
same,GI50,OVCAR-5; OVCAR-5,1710 nM
same,CC50,"OVCAR-5; OVCAR-5, read-out: LC50",6450 nM
same,GI50,OVCAR-8; OVCAR-8,1020 nM
same,CC50,"OVCAR-8; OVCAR-8, read-out: LC50",> 100000 nM
same,GI50,SK-OV-3,1370 nM
same,GI50,A498; A498,2300 nM
same,CC50,"A498; A498, read-out: LC50",66900 nM
same,toxicity to the animals,[1]; daily oral administration for one month,little toxicity
same,oral absorption,[1]; preliminary animal studies,can be orally absorbed
